Consider 2 compounds from ChEMBL document CHEMBL1909635, “Selectivity of 3'-O-methylponkoranol for inhibition of N- and C-terminal maltase glucoamylase and sucrase isomaltase, potential therapeutics for digestive disorders or their sequelae” (Bioorg Med Chem Lett, 2011).

Assay [1] addresses T1, Sucrase-isomaltase, intestinal (Homo sapiens, UniProt P14410). Description: Inhibition of human recombinant N-terminal Sucrase-isomaltase by Lineweaver-Burk plot analysis.
The nature of assay [2]: Inhibition of human recombinant C-terminal subunit of maltase-glucoamylase-N2 by Lineweaver-Burk plot analysis.
For assay [3], the species on record is Homo sapiens. Description: Selectivity ratio of Ki for human recombinant N-terminal maltase-glucoamylase to Ki for human recombinant C-terminal subunit of maltase-glucoamylase-N2.
The nature of assay [4]: Inhibition of human recombinant C-terminal subunit of maltase-glucoamylase-N20 by Lineweaver-Burk plot analysis.
For assay [5], the species on record is Homo sapiens. As to the kind of experiment: Selectivity ratio of Ki for human recombinant N-terminal maltase-glucoamylase to Ki for human recombinant C-terminal subunit of maltase-glucoamylase-N20.
For assay [6], the species on record is Homo sapiens. As to the kind of experiment: Selectivity ratio of Ki for human recombinant N-terminal maltase-glucoamylase to Ki for human recombinant C-terminal Sucrase-isomaltase.
Assay [7] has as its target T1, Sucrase-isomaltase, intestinal. Description: Inhibition of human recombinant C-terminal Sucrase-isomaltase by Lineweaver-Burk plot analysis.
The species entered for assay [8] is Homo sapiens. Description: Selectivity ratio of Ki for human recombinant N-terminal Sucrase-isomaltase to Ki for human recombinant C-terminal Sucrase-isomaltase.

By Ki is commonly meant a dissociation constant, usually derived from enzyme kinetics or from competition with a known ligand.

Molecules are shown by their SMILES.

T1 sequence (P14410 2-1007 limits assumed): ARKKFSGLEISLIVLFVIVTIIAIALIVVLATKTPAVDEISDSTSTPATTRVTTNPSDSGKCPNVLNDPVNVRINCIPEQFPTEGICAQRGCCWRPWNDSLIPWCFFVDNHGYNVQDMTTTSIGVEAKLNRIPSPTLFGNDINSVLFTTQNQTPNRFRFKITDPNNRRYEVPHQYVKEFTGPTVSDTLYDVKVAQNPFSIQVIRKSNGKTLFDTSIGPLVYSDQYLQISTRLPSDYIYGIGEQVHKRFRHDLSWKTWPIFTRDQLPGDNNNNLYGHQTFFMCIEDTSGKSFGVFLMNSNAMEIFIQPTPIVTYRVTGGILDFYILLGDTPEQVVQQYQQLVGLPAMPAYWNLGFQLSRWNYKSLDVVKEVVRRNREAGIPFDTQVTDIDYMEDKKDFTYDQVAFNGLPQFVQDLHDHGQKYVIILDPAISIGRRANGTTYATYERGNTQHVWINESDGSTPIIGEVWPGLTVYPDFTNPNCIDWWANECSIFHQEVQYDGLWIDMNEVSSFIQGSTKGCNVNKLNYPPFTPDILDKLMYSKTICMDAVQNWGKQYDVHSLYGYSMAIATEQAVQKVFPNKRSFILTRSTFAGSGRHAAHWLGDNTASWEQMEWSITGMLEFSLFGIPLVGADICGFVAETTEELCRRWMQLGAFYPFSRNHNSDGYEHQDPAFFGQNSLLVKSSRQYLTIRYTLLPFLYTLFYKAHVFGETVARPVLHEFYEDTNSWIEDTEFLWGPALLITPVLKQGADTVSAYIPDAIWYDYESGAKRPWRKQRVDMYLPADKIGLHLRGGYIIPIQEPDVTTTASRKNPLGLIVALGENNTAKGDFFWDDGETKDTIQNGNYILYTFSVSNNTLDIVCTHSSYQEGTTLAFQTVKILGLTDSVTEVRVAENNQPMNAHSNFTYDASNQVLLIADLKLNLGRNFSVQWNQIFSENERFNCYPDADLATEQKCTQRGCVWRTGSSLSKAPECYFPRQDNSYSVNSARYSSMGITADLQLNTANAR
T1 sequence (P14410 1008-1827 limits assumed): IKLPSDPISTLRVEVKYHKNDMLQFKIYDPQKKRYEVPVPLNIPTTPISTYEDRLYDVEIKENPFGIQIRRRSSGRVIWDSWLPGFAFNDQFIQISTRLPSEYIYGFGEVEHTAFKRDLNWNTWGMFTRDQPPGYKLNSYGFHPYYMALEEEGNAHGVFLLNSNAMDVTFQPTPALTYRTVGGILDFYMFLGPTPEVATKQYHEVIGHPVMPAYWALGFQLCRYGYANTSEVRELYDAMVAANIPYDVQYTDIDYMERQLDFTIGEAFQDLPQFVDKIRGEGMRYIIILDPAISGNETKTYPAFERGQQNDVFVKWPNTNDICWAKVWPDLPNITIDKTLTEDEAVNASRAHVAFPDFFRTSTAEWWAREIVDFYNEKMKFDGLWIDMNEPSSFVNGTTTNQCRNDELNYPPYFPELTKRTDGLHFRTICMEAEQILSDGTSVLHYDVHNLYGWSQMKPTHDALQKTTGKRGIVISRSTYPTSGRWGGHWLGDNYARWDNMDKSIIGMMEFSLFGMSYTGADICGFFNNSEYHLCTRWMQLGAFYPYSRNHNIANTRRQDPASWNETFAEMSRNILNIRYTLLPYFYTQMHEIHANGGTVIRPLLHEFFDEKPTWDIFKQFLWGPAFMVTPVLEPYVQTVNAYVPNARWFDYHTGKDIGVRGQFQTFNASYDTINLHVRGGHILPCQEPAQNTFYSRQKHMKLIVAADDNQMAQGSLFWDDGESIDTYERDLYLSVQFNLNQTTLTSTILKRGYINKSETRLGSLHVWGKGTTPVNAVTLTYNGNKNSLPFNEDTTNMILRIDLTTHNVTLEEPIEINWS

Consider `CO[C@@H]([C@H](O)[C@@H](O)CO)[C@H](O)C[S@+]1C[C@@H](O)[C@H](O)[C@H]1CO`, for which the Ki in assay [1] turned out to be 0.035 µM; in assay [2] (read-out: Ki), 0.06 µM; in assay [4], 0.055 µM; in assay [7], 0.007 µM. Moreover, the Ratio Ki in the assay listed under Homo sapiens [3] came to 10; in the assay filed under Homo sapiens [5] it was 10; in the assay filed under Homo sapiens [6], 70; in the assay filed under Homo sapiens [8] it was 5.

In the case of `OC[C@@H]1[C@@H](O)[C@H](O)C[S@@+]1C[C@@H](O)[C@@H](O)[C@H](O)[C@@H](O)CO.[Cl-]` [NEOPONKORANOL], the Ki in assay [1] was 0.302 µM; in assay [2] it was “Not Active”; in assay [4], 0.096 µM; in assay [7], 0.103 µM.
